Data from US10131652B2, “Pyrimidinyloxy benzene derivatives as herbicides” (E. I. DU PONT DE NEMOURS AND COMPANY, priority 2014, dated 2018).

Tests used:
Assay type in all cases: in vivo
corn (Zea mays) [1] = assay: Test D pre-/postemergence plant response
Source text: (§1) Seeds of plant species selected from blackgrass (Alopecurus myosuroides), Italian ryegrass (Lolium multiflorum), winter wheat (Triticum aestivum), galium (catchweed bedstraw, Galium aparine), corn (Zea mays), large (Lg) crabgrass (Digitaria sanguinalis), giant foxtail (Setaria faberii), johnsongrass (Sorghum halepense), lambsquarters (Chenopodium album), morningglory (Ipomoea coccinea), yellow nutsedge (Cyperus esculentus), pigweed (Amaranthus retroflexus), ragweed (common ragweed, Ambrosia elatior), soybean (Glycine max), bamyardgrass (Echinochloa crus-galli), oilseed rape (Brassica napus), waterhemp (common waterhemp, Amaranthus rudis), and velvetleaf (Abutilon theophrasti) were planted into a blend of loam soil and sand and treated preemergence with test chemicals formulated in a non-phytotoxic solvent mixture which included a surfactant. At the same time, plants selected from these crop and weed species and also kochia (Kochia scoparia), wild oat (Avena fatua), and chickweed (common chickweed, Stellaria media) were planted in pots containing Redi-Earth® planting medium (Scotts Company, 14111 Scottslawn Road, Marysville, Ohio 43041) comprising spaghnum peat moss, vermiculite, wetting agent and starter nutrients and treated with postemergence applications of test chemicals formulated in the same manner. Plants ranged in height from 2 to 18 cm (1- to 4-leaf stage) for postemergence treatments. Treated plants and controls were maintained in a greenhouse for 13 to 15 days, after which time all species were compared to controls and visually evaluated. Plant response ratings, summarized in Table D, are based on a scale of 0 to 100 where 0 is no effect and 100 is complete control. A dash (-) response means no test result.

[2] = tested on: waterhemp (common waterhemp, Amaranthus rudis); assay: Test D pre-/postemergence plant response
Source text: as §1

[3] = tested on: ragweed (common ragweed, Ambrosia elatior); assay: Test D pre-/postemergence plant response
Source text: as §1

[4] = tested on: giant foxtail (Setaria faberii); assay: Test D pre-/postemergence plant response
Source text: as §1

[5] = tested on: galium (catchweed bedstraw, Galium aparine); assay: Test D pre-/postemergence plant response
Source text: as §1

[6] = tested on: Italian ryegrass (Lolium multiflorum); assay: Test D pre-/postemergence plant response
Source text: as §1

[7] = tested on: lambsquarters (Chenopodium album); assay: Test D pre-/postemergence plant response
Source text: as §1

[8] = tested on: barnyardgrass (Echinochloa crus-galli); assay: Test D pre-/postemergence plant response
Source text: as §1

[9] = tested on: pigweed (Amaranthus retroflexus); assay: Test D pre-/postemergence plant response
Source text: as §1

[10] = tested on: blackgrass (Alopecurus myosuroides); assay: Test D pre-/postemergence plant response
Source text: as §1

[11] = tested on: morningglory (Ipomoea coccinea); assay: Test D pre-/postemergence plant response
Source text: as §1

corn (Zea mays) [12] = assay: Test B pre-/postemergence plant response; details: 0 to 100 scale, 0 no effect, 100 complete control
Procedure, shortened: (§2)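 Seeds in loam–sand blend given preemergence soil spray; separately, plants at one- to two-leaf stage (2–10 cm) sprayed postemergence, compounds in non-phytotoxic solvent with surfactant. Injury rated visually versus untreated controls after ~10 days in greenhouse, 0 (no effect) to 100 (complete control).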

[13] = tested on: giant foxtail (Setaria faberii); assay: Test B pre-/postemergence plant response
Procedure, shortened: as §2

[14] = tested on: wheat (Triticum aestivum); assay: Test B pre-/postemergence plant response; details: 0 to 100 scale, 0 no effect, 100 complete control
Procedure, shortened: as §2

[15] = tested on: barnyardgrass (Echinochloa crus-galli); assay: Test B pre-/postemergence plant response
Procedure, shortened: as §2

[16] = tested on: pigweed (Amaranthus retroflexus); assay: Test B pre-/postemergence plant response
Procedure, shortened: as §2

[17] = Postemergence, 16 g ai/ha, scale 0 to 100 (0 no effect, 100 complete control)
[18] = Postemergence, 31 g ai/ha, scale 0 to 100 (0 no effect, 100 complete control)
[19] = Postemergence, 62 g ai/ha, scale 0 to 100, 0 no effect, 100 complete control
[20] = Postemergence, 125 g ai/ha, scale 0 to 100, 0 no effect, 100 complete control
[21] = Preemergence, 16 g ai/ha, scale 0 to 100 (0 no effect, 100 complete control)
[22] = Preemergence, 31 g ai/ha, scale 0 to 100 (0 no effect, 100 complete control)
[23] = Preemergence, 62 g ai/ha, scale 0 to 100 (0 no effect, 100 complete control)
[24] = 31 g ai/ha, Postemergence, 0 to 100 scale, 0 no effect, 100 complete control
[25] = 31 g ai/ha, Preemergence, 0 to 100 scale where 0 is no effect and 100 is complete control
[26] = 125 g ai/ha, postemergence, 0 to 100 scale, 0 no effect, 100 complete control
[27] = Preemergence, 125 g ai/ha, 0 to 100 scale where 0 is no effect and 100 is complete control

## Fc1ccc(Oc2ncc(Cl)cn2)c(-c2cc(C(F)F)on2)c1F [Compound 113]
Corn (Zea mays) [1]; [17]
  Corn plant response rating: 5
Corn (Zea mays) [1]; [18]
  Corn plant response rating: 10
Corn (Zea mays) [1]; [19]
  Plant response rating, Corn: 20
Corn (Zea mays) [1]; [20]
  Plant response rating, Corn: 25
Corn (Zea mays) [1]; Preemergence, 125 g ai/ha
  Plant response rating (scale 0 to 100), Corn: 40
Corn (Zea mays) [1]; [21]
  Plant response rating, Corn: 0
Corn (Zea mays) [1]; [22]
  Plant response rating, Corn: 0
Corn (Zea mays) [1]; [23]
  Plant response rating, Corn: 25
[2]; [17]
  Waterhemp plant response rating: 85
[2]; [18]
  Waterhemp plant response rating: 80
[2]; [19]
  Plant response rating, Waterhemp: 85
[2]; [20]
  Plant response rating, Waterhemp: 90
[2]; Preemergence, 125 g ai/ha
  Plant response rating (scale 0 to 100), Waterhemp: 100
[2]; [21]
  Plant response rating, Waterhemp: 100
[2]; [22]
  Plant response rating, Waterhemp: 100
[2]; [23]
  Plant response rating, Waterhemp: 100
[3]; [17]
  Ragweed plant response rating: 80
[3]; [18]
  Ragweed plant response rating: 60
[3]; [19]
  Plant response rating, Ragweed: 90
[3]; [20]
  Plant response rating, Ragweed: 90
[3]; Preemergence, 125 g ai/ha
  Plant response rating (scale 0 to 100), Ragweed: 90
[3]; [21]
  Plant response rating, Ragweed: 40
[3]; [22]
  Plant response rating, Ragweed: 55
[3]; [23]
  Plant response rating, Ragweed: 85
[4]; [17]
  Foxtail, Giant plant response rating: 5
[4]; [18]
  Foxtail, Giant plant response rating: 5
[4]; [19]
  Plant response rating, Foxtail, Giant: 10
[4]; [20]
  Plant response rating, Foxtail, Giant: 10
[4]; Preemergence, 125 g ai/ha
  Plant response rating (scale 0 to 100), Foxtail, Giant: 100
[4]; [21]
  Plant response rating, Foxtail, Giant: 85
[4]; [22]
  Plant response rating, Foxtail, Giant: 100
[4]; [23]
  Plant response rating, Foxtail, Giant: 100
[5]; [17]
  Galium plant response rating: 80
[5]; [18]
  Galium plant response rating: 80
[5]; [19]
  Plant response rating, Galium: 90
[5]; [20]
  Plant response rating, Galium: 90
[5]; Preemergence, 125 g ai/ha
  Plant response rating (scale 0 to 100), Galium: 90
[5]; [21]
  Plant response rating, Galium: 90
[5]; [22]
  Plant response rating, Galium: 90
[5]; [23]
  Plant response rating, Galium: 98
[6]; [17]
  Ryegrass, Italian plant response rating: 5
[6]; [18]
  Ryegrass, Italian plant response rating: 5
[6]; [19]
  Plant response rating, Ryegrass, Italian: 5
[6]; [20]
  Plant response rating, Ryegrass, Italian: 5
[6]; Preemergence, 125 g ai/ha
  Plant response rating (scale 0 to 100), Ryegrass, Italian: 70
[6]; [21]
  Plant response rating, Ryegrass, Italian: 5
[6]; [22]
  Plant response rating, Ryegrass, Italian: 10
[6]; [23]
  Plant response rating, Ryegrass, Italian: 60
[7]; [17]
  Lambsquarters plant response rating: 70
[7]; [18]
  Lambsquarters plant response rating: 85
[7]; [19]
  Plant response rating, Lambsquarters: 95
[7]; [20]
  Plant response rating, Lambsquarters: 90
[7]; Preemergence, 125 g ai/ha
  Plant response rating (scale 0 to 100), Lambsquarters: 98
[7]; [21]
  Plant response rating, Lambsquarters: 85
[7]; [22]
  Plant response rating, Lambsquarters: 98
[7]; [23]
  Plant response rating, Lambsquarters: 98
[8]; [17]
  Barnyardgrass plant response rating: 10
[8]; [18]
  Barnyardgrass plant response rating: 15
[8]; [19]
  Plant response rating, Barnyardgrass: 20
[8]; [20]
  Plant response rating, Barnyardgrass: 25
[8]; Preemergence, 62 g ai/ha
  Plant response rating (scale 0 to 100), Barnyardgrass: 98
[8]; Preemergence, 125 g ai/ha
  Plant response rating (scale 0 to 100), Barnyardgrass: 100
[8]; [21]
  Plant response rating, Barnyardgrass: 30
[8]; [22]
  Plant response rating, Barnyardgrass: 95
[9]; [17]
  Pigweed plant response rating: 90
[9]; [18]
  Pigweed plant response rating: 90
[9]; [19]
  Plant response rating, Pigweed: 95
[9]; [20]
  Plant response rating, Pigweed: 100
[9]; Preemergence, 125 g ai/ha
  Plant response rating (scale 0 to 100), Pigweed: 100
[9]; [21]
  Plant response rating, Pigweed: 100
[9]; [22]
  Plant response rating, Pigweed: 100
[9]; [23]
  Plant response rating, Pigweed: 100
[10]; [17]
  Blackgrass plant response rating: 5
[10]; [18]
  Blackgrass plant response rating: 15
[10]; [19]
  Plant response rating, Blackgrass: 10
[10]; [20]
  Plant response rating, Blackgrass: 40
[10]; Preemergence, 125 g ai/ha
  Plant response rating (scale 0 to 100), Blackgrass: 80
[10]; [21]
  Plant response rating, Blackgrass: 10
[10]; [22]
  Plant response rating, Blackgrass: 40
[10]; [23]
  Plant response rating, Blackgrass: 70
[11]; [17]
  Morningglory plant response rating: 85
[11]; [18]
  Morningglory plant response rating: 75
[11]; [19]
  Plant response rating, Morningglory: 85
[11]; [20]
  Plant response rating, Morningglory: 80
[11]; Preemergence, 125 g ai/ha
  Plant response rating (scale 0 to 100), Morningglory: 95
[11]; [21]
  Plant response rating, Morningglory: 20
[11]; [22]
  Plant response rating, Morningglory: 35
[11]; [23]
  Plant response rating, Morningglory: 85
Corn (Zea mays) [12]; 31 g ai/ha, Postemergence
  Plant response rating, Corn: 10
Corn (Zea mays) [12]; 125 g ai/ha, postemergence
  Plant response rating, Corn: 30
[13]; [24]
  Plant response rating, Foxtail, Giant: 60
[13]; [25]
  Plant response rating, Foxtail, Giant: 90
[13]; [26]
  Plant response rating, Foxtail, Giant: 90
[13]; [27]
  Plant response rating, Foxtail, Giant: 100
[14]; 31 g ai/ha, Postemergence
  Plant response rating, Wheat: 0
[14]; 125 g ai/ha, postemergence
  Plant response rating, Wheat: 10
[15]; [24]
  Plant response rating, Barnyardgrass: 60
[15]; [25]
  Plant response rating, Barnyardgrass: 70
[15]; [26]
  Plant response rating, Barnyardgrass: 90
[15]; [27]
  Plant response rating, Barnyardgrass: 100
[16]; [24]
  Plant response rating, Pigweed: 100
[16]; [25]
  Plant response rating, Pigweed: 100
[16]; [26]
  Plant response rating, Pigweed: 100
